Experimental data: US8148391B2 (Cephalon, Inc., priority 2006, dated 2012)
Read-outs that look alike come from different tables or passages of the source.

What was measured:
[1] = biological target: T1, baculovirus-expressed ALK (Homo sapiens, UniProt Q9UM73); experiment: ALK Kinase Assay (ELISA-type, time-resolved fluorescence); assay type: biochemical
T1 construct: host or cells: baculovirus expression system
In short: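 Wells were coated with phospholipase C-γ at 10 μg/mL in Tris-buffered saline. Adding 30 ng/ml enzyme started the reaction, which ran at 37° C for 15 minutes before Eu-N1 PT66 antibody detection. Percent inhibition versus log10 concentration gave IC50 by variable-slope fit.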

[2] = biological target: T2, c-Met (cytoplasmic domain) (Homo sapiens, UniProt P08581); experiment: c-Met Kinase Assay (same methods as for ALK, with modifications); assay type: biochemical
T2 construct: 10 ng/mL c-Met (cytoplasmic domain, Invitrogen Corporation #PV3143); purchased Invitrogen Corporation PV3143
In short: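 IC50 values were fitted by variable-slope sigmoidal regression of percent inhibition against log compound concentration. Phosphorylation was read with Eu-N1 PT66 antibody after a 15 min, 37 °C reaction. The reaction was initiated with 10 ng/mL c-Met cytoplasmic domain on wells coated with 10 μg/mL PLC-γ in TBS.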

[3] = ALK kinase inhibition, 1 μM ATP (Km level), read-out: ALK Activity
[4] = c-Met kinase inhibition, 1 μM ATP (Km level), read-out: cMet Activity
[5] = 1 μM ATP (Km level), 30 ng/ml ALK, 37° C., 15 minutes, read-out: ALK Activity (ALK kinase inhibition, IC50 class)
[6] = 1 μM ATP (Km level), 10 ng/mL c-Met, read-out: cMet Activity (c-Met kinase inhibition, IC50 class)
[7] = ALK kinase inhibition, 1 μM ATP, read-out: ALK Activity
[8] = c-Met kinase inhibition, 1 μM ATP, read-out: cMet Activity
[9] = 1 μM ATP (Km level), read-out: ALK Activity (ALK Kinase Inhibition, IC50)
[10] = 1 μM ATP (Km level), read-out: cMet Activity (c-Met Kinase Inhibition, IC50)

T2 sequence (P08581 956-1390 limits assumed): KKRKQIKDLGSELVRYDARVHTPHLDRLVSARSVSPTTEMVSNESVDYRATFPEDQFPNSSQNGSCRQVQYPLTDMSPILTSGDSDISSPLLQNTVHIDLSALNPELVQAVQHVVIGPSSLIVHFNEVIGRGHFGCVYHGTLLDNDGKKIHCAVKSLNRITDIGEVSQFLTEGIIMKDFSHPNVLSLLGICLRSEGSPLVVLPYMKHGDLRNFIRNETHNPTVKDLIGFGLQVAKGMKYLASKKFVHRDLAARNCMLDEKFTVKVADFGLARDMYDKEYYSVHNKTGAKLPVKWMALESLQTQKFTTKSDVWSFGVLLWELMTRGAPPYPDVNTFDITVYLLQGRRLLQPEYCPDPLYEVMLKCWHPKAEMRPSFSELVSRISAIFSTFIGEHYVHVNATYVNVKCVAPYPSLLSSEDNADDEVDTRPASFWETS
T1 sequence (Q9UM73 19-1620): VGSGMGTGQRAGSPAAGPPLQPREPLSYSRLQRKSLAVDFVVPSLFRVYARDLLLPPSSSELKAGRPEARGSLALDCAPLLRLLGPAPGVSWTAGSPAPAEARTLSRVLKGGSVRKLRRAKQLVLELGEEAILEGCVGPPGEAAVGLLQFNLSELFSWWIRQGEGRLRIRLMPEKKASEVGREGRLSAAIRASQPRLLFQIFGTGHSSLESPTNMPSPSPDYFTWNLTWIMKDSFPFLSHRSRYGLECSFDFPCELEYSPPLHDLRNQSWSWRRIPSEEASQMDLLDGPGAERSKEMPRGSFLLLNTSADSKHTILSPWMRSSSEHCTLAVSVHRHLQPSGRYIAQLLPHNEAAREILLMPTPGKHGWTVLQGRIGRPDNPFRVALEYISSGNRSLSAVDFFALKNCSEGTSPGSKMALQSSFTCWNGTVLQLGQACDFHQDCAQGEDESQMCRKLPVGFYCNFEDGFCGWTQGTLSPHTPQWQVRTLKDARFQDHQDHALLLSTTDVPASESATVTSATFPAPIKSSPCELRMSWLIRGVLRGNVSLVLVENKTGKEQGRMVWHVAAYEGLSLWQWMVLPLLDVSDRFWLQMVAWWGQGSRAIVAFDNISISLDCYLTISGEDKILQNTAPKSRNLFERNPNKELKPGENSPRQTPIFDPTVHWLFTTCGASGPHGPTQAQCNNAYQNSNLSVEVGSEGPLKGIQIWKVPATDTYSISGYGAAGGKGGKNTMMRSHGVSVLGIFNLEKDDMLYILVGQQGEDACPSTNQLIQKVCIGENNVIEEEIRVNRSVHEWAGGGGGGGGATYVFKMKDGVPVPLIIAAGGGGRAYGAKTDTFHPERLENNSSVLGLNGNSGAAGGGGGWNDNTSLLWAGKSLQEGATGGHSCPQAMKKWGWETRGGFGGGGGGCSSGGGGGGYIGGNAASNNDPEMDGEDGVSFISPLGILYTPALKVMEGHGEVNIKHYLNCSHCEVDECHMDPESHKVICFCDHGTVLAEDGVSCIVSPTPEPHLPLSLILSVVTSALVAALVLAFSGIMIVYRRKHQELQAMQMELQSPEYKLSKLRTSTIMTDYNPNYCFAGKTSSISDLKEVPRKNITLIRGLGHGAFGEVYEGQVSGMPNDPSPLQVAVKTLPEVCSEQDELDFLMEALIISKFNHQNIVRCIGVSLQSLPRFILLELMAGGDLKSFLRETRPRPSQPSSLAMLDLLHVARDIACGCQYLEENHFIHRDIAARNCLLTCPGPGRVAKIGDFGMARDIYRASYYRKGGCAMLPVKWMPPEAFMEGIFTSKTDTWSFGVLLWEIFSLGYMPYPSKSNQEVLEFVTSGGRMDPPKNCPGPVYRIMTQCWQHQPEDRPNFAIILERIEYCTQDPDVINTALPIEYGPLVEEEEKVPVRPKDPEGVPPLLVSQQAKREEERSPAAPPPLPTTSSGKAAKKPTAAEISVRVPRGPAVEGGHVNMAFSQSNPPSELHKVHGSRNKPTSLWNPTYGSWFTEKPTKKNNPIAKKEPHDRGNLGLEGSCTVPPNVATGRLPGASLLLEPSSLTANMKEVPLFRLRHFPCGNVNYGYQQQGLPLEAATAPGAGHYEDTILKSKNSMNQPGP

**Q.** How did the IC50 [1, 3] turn out when `CNC(=O)c1ccccc1Nc1nc(Nc2ccc3c(c2)NCCNC3=O)ncc1Cl` [Example 411, 2-[5-Chloro-2-(5-oxo-2,3,4,5-tetrahydro-1H-benzo[e][1,4]diazepin-8-ylamino)-pyrimidin-4-ylamino]-N-methylbenzamide] was run?
**A.** The IC50 was less than 100 nM.

**Q.** What about the IC50 [2, 4] of the same molecule?
**A.** The IC50 was less than 100 nM.

**Q.** With `COCCN1CCc2ccc(Nc3ncc(Cl)c(Nc4ccccc4OCC(=O)O)n3)cc2CC1` [Example 1242, (2-{5-Chloro-2-[3-(2-methoxy-ethyl)-2,3,4,5-tetrahydro-1H-3-benzazepin-7-ylamino]-pyrimidin-4-ylamino}-phenoxy)-acetic acid] as the molecule, how does the IC50 [1, 5] read?
**A.** Its IC50 is less than 100 nM.

**Q.** What about the IC50 [2, 6] of the same molecule?
**A.** Its IC50 is 100 to 1000 nM.

**Q.** Which results are given for `CCN1C(=O)CCC(C)(C)c2ccc(Nc3ncc(Cl)c(Nc4c(F)cc(F)cc4C(=O)NC)n3)cc21` [Example 1615, 2-[5-Chloro-2-(1-ethyl-5,5-dimethyl-2-oxo-2,3,4,5-tetrahydro-1H-benzo[b]azepin-8-ylamino)-pyrimidin-4-ylamino]-3,5-difluoro-N-methyl-benzamide]?
**A.** IC50 [1, 7]: < 100 nM; IC50 [2, 8]: < 100 nM

**Q.** What does the source list for `NC(=O)C1C2C=CC(C2)C1Nc1nc(Nc2cccc3c2OCCCC3)ncc1Cl` (stereo not drawn) [Example 861, (2-exo-3-exo)-3-[5-Chloro-2-(2,3,4,5-tetrahydro-benzo[b]oxepin-9-ylamino)-pyrimidin-4-ylamino]-bicyclo[2.2.1]hept-5-ene-2-carboxylic acid amide]?
**A.** IC50 [1, 9]: < 100 nM; IC50 [2, 10]: > 10000 nM

**Q.** With `CNC(=O)c1cc(-c2cnn(C)c2)cc(F)c1Nc1nc(Nc2ccc3c(c2)NC(=O)CCC3(C)C)ncc1Cl` [Example 1624, 2-[5-Chloro-2-(5,5-dimethyl-2-oxo-2,3,4,5-tetrahydro-1H-benzo[b]azepin-8-ylamino)-pyrimidin-4-ylamino]-3-fluoro-N-methyl-5-(1-methyl-1H-pyrazol-4-yl)-benzamide] as the molecule, how does the IC50 [1, 7] read?
**A.** Its IC50 is less than 100 nM.

**Q.** And the IC50 [2, 8]?
**A.** Its IC50 is less than 100 nM.

**Q.** Which results are given for `CCN1CCN(CC)c2cc(Nc3ncc(Cl)c(Nc4ccc5c(c4)N(CC)CCN(CC)C5=O)n3)ccc2C1` [Example 722, 8-[5-Chloro-2-(1,4-diethyl-2,3,4,5-tetrahydro-1H-benzo[e][1,4]diazepin-8-ylamino)-pyrimidin-4-ylamino]-1,4-diethyl-1,2,3,4-tetrahydro-benzo[e][1,4]diazepin-5-one]?
**A.** IC50 [1, 9]: 100 to 1000 nM; IC50 [2, 10]: > 10000 nM

**Q.** `CCN1C(=O)CCCc2c1ccc(Nc1ncc(Cl)c(NC3C4C=CC(C4)C3C(N)=O)n1)c2OC` (stereo not drawn) [Example 121, (2-exo,3-exo)-3-[5-Chloro-2-(1-ethyl-6-methoxy-2-oxo-2,3,4,5-tetrahydro-1H-benzo[b]azepin-7-ylamino)-pyrimidin-4-ylamino]-bicyclo[2.2.1]hept-5-ene-2-carboxylic acid amide] was tested. Which IC50 [1, 3] did it give?
**A.** Its IC50 is less than 100 nM.

**Q.** And the IC50 [2, 4]?
**A.** Its IC50 is greater than 10000 nM.

**Q.** What does the source list for `CCN1C(=O)C(NC(=O)COC)CC(C)(C)c2ccc(Nc3ncc(Cl)c(Nc4c(F)cccc4C(=O)NC)n3)cc21` (stereo not drawn) [Example 1644, 2-{5-Chloro-2-[1-ethyl-3-(2-methoxy-acetylamino)-5,5-dimethyl-2-oxo-2,3,4,5-tetrahydro-1H-benzo[b]azepin-8-ylamino]-pyrimidin-4-ylamino}-3-fluoro-N-methyl-benzamide]?
**A.** IC50 [1, 7]: 100 to 1000 nM; IC50 [2, 8]: < 100 nM

**Q.** Which results are given for `CCN1CCc2ccc(Nc3ncc(Cl)c(N[C@@H]4CCCC[C@H]4NC(C)=O)n3)cc2CC1` [Example 445, N-{(1R,2R)-2-[5-Chloro-2-(3-ethyl-2,3,4,5-tetrahydro-1H-benzo[d]azepin-7-ylamino)-pyrimidin-4-ylamino]-cyclohexyl}-acetamide]?
**A.** IC50 [1, 3]: < 100 nM; IC50 [2, 4]: < 100 nM

**Q.** With `COc1cc(N2CCOCC2)ccc1Nc1nc(Nc2ccc3c(c2OC)CCC(NCCO)CC3)ncc1Cl` (stereo not drawn) [Example 705, 2-{2-[5-Chloro-4-(2-methoxy-4-morpholin-4-yl-phenylamino)-pyrimidin-2-ylamino]-1-methoxy-6,7,8,9-tetrahydro-5H-benzocyclohepten-7-ylamino}-ethanol] as the molecule, how does the IC50 [1, 9] read?
**A.** Its IC50 is less than 100 nM.

**Q.** And the IC50 [2, 10]?
**A.** The IC50 was greater than 10000 nM.

**Q.** `CC1(C)CCC(=O)Nc2ccc(Nc3ncc(Cl)c(Nc4ccccc4-n4cccn4)n3)cc21` [Example 398, 7-[5-Chloro-4-(2-pyrazol-1-yl-phenylamino)-pyrimidin-2-ylamino]-5,5-dimethyl-1,3,4,5-tetrahydro-benzo[b]azepin-2-one] was tested. Which IC50 [1, 3] did it give?
**A.** Its IC50 is less than 100 nM.

**Q.** And the IC50 [2, 4]?
**A.** The IC50 was greater than 10000 nM.

**Q.** Which IC50 [1, 3] does the source give for `CNC(=O)c1ccccc1Nc1nc(Nc2ccc3c(c2)CCN(C(=O)N(C)C)CC3)ncc1Cl` [Example 327, 7-[5-Chloro-4-(2-methylcarbamoyl-phenylamino)-pyrimidin-2-ylamino]-1,2,4,5-tetrahydro-benzo[d]azepine-3-carboxylic acid dimethylamide] here?
**A.** Its IC50 is less than 100 nM.

**Q.** And the IC50 [2, 4]?
**A.** The IC50 was less than 100 nM.

**Q.** Which results are given for `COc1cc2c(cc1Nc1ncc(Cl)c(Nc3ccc(N4CCOCC4)cc3OC)n1)N(C)CCNC2` [Example 493, 5-Chloro-N*2*-(7-methoxy-1-methyl-2,3,4,5-tetrahydro-1H-benzo[e][1,4]diazepin-8-yl)-N*4*-(2-methoxy-4-morpholin-4-yl-phenyl)-pyrimidine-2,4-diamine]?
**A.** IC50 [1, 3]: < 100 nM; IC50 [2, 4]: > 10000 nM

**Q.** What does the source list for `C#CCNC(=O)c1cccc(F)c1Nc1nc(Nc2ccc3c(c2)CCN(CCOC)CC3)ncc1Cl` [Example 1403, 2-{5-Chloro-2-[3-(2-methoxy-ethyl)-2,3,4,5-tetrahydro-1H-benzo[d]azepin-7-ylamino]-pyrimidin-4-ylamino}-3-fluoro-N-prop-2-ynyl-benzamide]?
**A.** IC50 [1, 5]: < 100 nM; IC50 [2, 6]: < 100 nM

**Q.** For `COCCOc1ccc(Nc2nc(Nc3cc4c(cc3OC)CCN(CC(=O)N(C)C)CC4)ncc2Cl)c(S(=O)(=O)C(C)C)c1` [Example 1189, 2-(7-{5-Chloro-4-[4-(2-methoxy-ethoxy)-2-(propane-2-sulfonyl)-phenylamino]-pyrimidin-2-ylamino}-8-methoxy-1,2,4,5-tetrahydro-benzo[d]azepin-3-yl)-N,N-dimethyl-acetamide], which IC50 [1, 5] is on record?
**A.** Its IC50 is less than 100 nM.

**Q.** What about the IC50 [2, 6] of the same molecule?
**A.** Its IC50 is greater than 10000 nM.

**Q.** Which results are given for `CCN1CCc2ccc(Nc3ncc([N+](=O)[O-])c(Nc4ccccc4C(=O)NC)n3)cc2CC1` [Example 193, 2-[2-(3-Ethyl-2,3,4,5-tetrahydro-1H-benzo[d]azepin-7-ylamino)-5-nitro-pyrimidin-4-ylamino]-N-methyl-benzamide]?
**A.** IC50 [1, 3]: < 100 nM; IC50 [2, 4]: 100 to 1000 nM

**Q.** With `CCOC(=O)N1C2CCC1c1cc(Nc3ncc(Cl)c(Nc4ccccc4C(=O)NC)n3)ccc1C2` (stereo not drawn) [Example 67, 4-[5-Chloro-4-(2-methylcarbamoyl-phenylamino)-pyrimidin-2-ylamino]-12-aza-tricyclo[7.2.1.0*2,7*]dodeca-2(7),3,5-triene-12-carboxylic acid ethyl ester] as the molecule, how does the IC50 [1, 3] read?
**A.** The IC50 was less than 100 nM.

**Q.** What about the IC50 [2, 4] of the same molecule?
**A.** The IC50 was less than 100 nM.

**Q.** `CNC(=O)c1ccccc1Nc1nc(Nc2cc3c(cc2OC)CCN(CCOC)CC3)ncc1Br` [Example 198, 2-{5-Bromo-2-[8-methoxy-3-(2-methoxy-ethyl)-2,3,4,5-tetrahydro-1H-benzo[d]azepin-7-ylamino]-pyrimidin-4-ylamino}-N-methyl-benzamide] was tested. Which IC50 [1, 3] did it give?
**A.** The IC50 was less than 100 nM.

**Q.** What about the IC50 [2, 4] of the same molecule?
**A.** Its IC50 is 1000 to 10000 nM.

**Q.** `COc1cc2c(cc1Nc1ncc(Cl)c(Nc3ccc(N4CCN(C)CC4)c(OC)c3)n1)CCN(CC(=O)N(C)C)CC2` [Example 804, 2-(7-{5-Chloro-4-[3-methoxy-4-(4-methyl-piperazin-1-yl)-phenylamino]-pyrimidin-2-ylamino}-8-methoxy-1,2,4,5-tetrahydro-benzo[d]azepin-3-yl)-N,N-dimethyl-acetamide] was tested. Which IC50 [1, 9] did it give?
**A.** Its IC50 is less than 100 nM.

**Q.** And the IC50 [2, 10]?
**A.** Its IC50 is greater than 10000 nM.

**Q.** For `COc1cc2c(cc1Nc1ncc(Cl)c(N[C@H]3[C@@H](C(N)=O)[C@@H]4C=C[C@H]3C4)n1)CCN(CC(=O)N1CCCC1)CC2` [Example 1159, (1S,2S,3R,4R)-3-{5-Chloro-2-[8-methoxy-3-(2-oxo-2-pyrrolidin-1-yl-ethyl)-2,3,4,5-tetrahydro-1H-benzo[d]azepin-7-ylamino]-pyrimidin-4-ylamino}-bicyclo[2.2.1]hept-5-ene-2-carboxylic acid amide], which IC50 [1, 5] is on record?
**A.** The IC50 was less than 100 nM.

**Q.** And the IC50 [2, 6]?
**A.** The IC50 was greater than 10000 nM.

**Q.** What does the source list for `CN1Cc2cc(Nc3ncc(Cl)c(Nc4cccc5c4OC(F)(F)O5)n3)ccc2CCC1=O` [Example 1803, 8-[5-Chloro-4-(2,2-difluoro-benzo[1,3]dioxol-4-ylamino)-pyrimidin-2-ylamino]-2-methyl-1,2,4,5-tetrahydro-benzo[c]azepin-3-one]?
**A.** IC50 [1, 7]: < 100 nM; IC50 [2, 8]: 100 to 1000 nM

**Q.** `COc1cc2c(cc1Nc1ncc(Cl)c(Nc3ccccc3-c3nccn3C)n1)CCN(CC(=O)N(C)C)CC2` [Example 999, 2-(7-{5-Chloro-4-[2-(1-methyl-1H-imidazol-2-yl)-phenylamino]-pyrimidin-2-ylamino}-8-methoxy-1,2,4,5-tetrahydro-benzo[d]azepin-3-yl)-N,N-dimethyl-acetamide] was tested. Which IC50 [1, 9] did it give?
**A.** Its IC50 is less than 100 nM.

**Q.** And the IC50 [2, 10]?
**A.** Its IC50 is greater than 10000 nM.

**Q.** What does the source list for `CCN1CCN(CC)c2cc(Nc3ncc(Cl)c(Nc4ccccc4OCC#N)n3)ccc2C1` [Example 731, {2-[5-Chloro-2-(1,4-diethyl-2,3,4,5-tetrahydro-1H-benzo[e][1,4]diazepin-8-ylamino)-pyrimidin-4-ylamino]-phenoxy}-acetonitrile]?
**A.** IC50 [1, 9]: < 100 nM; IC50 [2, 10]: 100 to 1000 nM

**Q.** How did the IC50 [1, 3] turn out when `CN1CCN(C)c2cccc(Nc3ncc(Cl)c(Nc4ccccc4NS(C)(=O)=O)n3)c2C1=O` [Example 215, N-{2-[5-Chloro-2-(1,4-dimethyl-5-oxo-2,3,4,5-tetrahydro-1H-benzo[e][1,4]diazepin-6-ylamino)-pyrimidin-4-ylamino]-phenyl}-methanesulfonamide] was run?
**A.** Its IC50 is greater than 10000 nM.

**Q.** What about the IC50 [2, 4] of the same molecule?
**A.** The IC50 was greater than 10000 nM.
